# Source: US8148422B2, “Sulfonamides as TRPM8 modulators” (Janssen Pharmaceutica, NV, priority 2008, dated 2012)
# Target: T1, canine TRPM8 (Canis lupus familiaris, UniProt Q1A7N1)
# T1 construct: expressed in transfected cells
# Assay: In vitro canine TRPM8 functional assay (Ca2+-sensitive fluorescent dye, FLIPR or FDSS, icilin challenge)
# Format: cell-based
# Settings: HEK293 cells stably expressing canine TRPM8; for inhibition at 0.2 µM: 0.2 μM compound, icilin challenge; for IC50: icilin at approx. 80% maximal response, eight-point dose-response, single determinations unless otherwise noted, read-out: IC50
# Experimental: The functional activity of compounds of the formula (I) was determined by measuring changes in intracellular calcium concentration using a Ca^2+-sensitive fluorescent dye. The changes in fluorescent signal were monitored by a fluorescence plate reader, either a FLIPR™ (Molecular Devices) or FDSS (Hamamatsu).
# At 24 hrs prior to assay, HEK293 cells stably expressing canine TRPM8 were seeded in culture medium in black wall, clear-base poly-D-lysine coated 384-well plates (BD Biosciences, NJ, USA) and grown overnight in 5% CO2 at 37° C. On assay day, growth media was removed and cells were loaded with Calcium 3 Dye (Molecular Devices) for 35 min at 37° C., under 5% CO2 and then for 25 min at room temperature and atmosphere. Subsequently, cells were tested for agonist-induced increases in intracellular Ca^2+ levels using FLIPR™ or FDSS. Cells were challenged with a compound of the Formula (I) (at varying concentrations) and intracellular Ca^2+ was measured for 5 min prior to the addition of icilin to all wells to achieve a final concentration that produces approximately an 80% maximal response. EC50 or IC50 values for compounds of the present invention were determined from eight-point dose-response studies. Curves were generated using the average of quadruplicate wells for each data point.
# T1 sequence (Q1A7N1 1-1104): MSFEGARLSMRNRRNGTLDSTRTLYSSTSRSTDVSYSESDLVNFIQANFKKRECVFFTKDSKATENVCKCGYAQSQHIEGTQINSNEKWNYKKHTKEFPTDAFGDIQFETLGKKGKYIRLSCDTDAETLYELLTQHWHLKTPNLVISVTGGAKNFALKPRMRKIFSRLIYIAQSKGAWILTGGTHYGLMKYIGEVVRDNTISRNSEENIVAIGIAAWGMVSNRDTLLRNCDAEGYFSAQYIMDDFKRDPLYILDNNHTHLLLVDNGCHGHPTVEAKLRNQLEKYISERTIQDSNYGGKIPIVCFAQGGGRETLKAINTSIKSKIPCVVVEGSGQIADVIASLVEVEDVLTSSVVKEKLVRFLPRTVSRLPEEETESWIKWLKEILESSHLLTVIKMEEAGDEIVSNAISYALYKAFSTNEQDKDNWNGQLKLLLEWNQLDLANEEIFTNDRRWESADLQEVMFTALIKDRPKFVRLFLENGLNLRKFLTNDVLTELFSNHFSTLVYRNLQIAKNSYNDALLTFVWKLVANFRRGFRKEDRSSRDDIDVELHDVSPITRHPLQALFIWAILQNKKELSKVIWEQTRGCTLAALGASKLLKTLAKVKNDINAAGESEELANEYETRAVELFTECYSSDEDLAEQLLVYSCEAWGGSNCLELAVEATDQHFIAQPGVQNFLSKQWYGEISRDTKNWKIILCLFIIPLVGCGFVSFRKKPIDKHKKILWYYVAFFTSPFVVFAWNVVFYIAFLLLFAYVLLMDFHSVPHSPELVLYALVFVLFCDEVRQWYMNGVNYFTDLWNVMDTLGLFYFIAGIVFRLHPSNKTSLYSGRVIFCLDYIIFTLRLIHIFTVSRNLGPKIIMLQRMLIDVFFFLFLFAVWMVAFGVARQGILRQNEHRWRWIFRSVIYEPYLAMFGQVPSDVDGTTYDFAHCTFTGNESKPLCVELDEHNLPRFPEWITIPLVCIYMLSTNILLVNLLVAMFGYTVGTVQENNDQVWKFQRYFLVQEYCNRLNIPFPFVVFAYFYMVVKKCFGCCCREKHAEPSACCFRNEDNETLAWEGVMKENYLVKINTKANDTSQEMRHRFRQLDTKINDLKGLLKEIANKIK
inhibition at 0.2 µM,IC50,Compound
101%,27 nM,"O=S(=O)(CCN1CCCCC1)N(Cc1ccc(OC(F)(F)F)cc1)c1sc2ccccc2c1Br [Cpd 64, N-(3-Bromobenzo[b]thiophen-2-yl)-N-(4-trifluoromethoxy-benzyl)-2-(N-piperidinyl)ethylsulfonamide]"
100%,29 nM,"O=S(=O)(CCN1CCSCC1)N(Cc1ccc(OC(F)(F)F)cc1)c1sc2ccccc2c1Br [Cpd 66, N-(3-Bromobenzo[b]thiophen-2-yl)-N-(4-trifluoromethoxy-benzyl)-2-(thiomorpholin-4-yl)ethylsulfonamide]"
99%,27 nM,"Cc1c(N(Cc2ccc(OC(F)(F)F)cc2)S(=O)(=O)CCN2CCCC(C(F)(F)F)C2)sc2ccccc12 (centres unmarked) [Cpd 24, N-(3-Methylbenzo[b]thiophen-2-yl)-N-(4-trifluoromethoxy-benzyl)-2-(3-trifluoromethylpiperidin-1-yl)ethylsulfonamide]"
99%,29 nM,"CCCN(C)CCS(=O)(=O)N(Cc1ccc(OC(F)(F)F)cc1)c1sc2ccccc2c1C [Cpd 7, N-(3-Methylbenzo[b]thiophen-2-yl)-N-(4-trifluoromethoxy-benzyl)-2-(methyl-propylamino)ethylsulfonamide]"
24%,–,"CNCCS(=O)(=O)N(Cc1ccc(OC(F)(F)F)cc1)c1sc2ccccc2c1C [Cpd 48, N-(3-Methylbenzo[b]thiophen-2-yl)-N-(4-trifluoromethoxy-benzyl)-2-(methylamino)ethylsulfonamide]"
94%,56 nM,"Cc1c(N(Cc2ccc(OC(F)(F)F)cc2)S(=O)(=O)CCN2CCCC2)sc2ccccc12 [Cpd 36, N-(3-Methylbenzo[b]thiophen-2-yl)-N-(4-trifluoromethoxy-benzyl)-2-(pyrrolidin-1-yl)ethylsulfonamide]"
99%,25 nM,"Cc1c(N(Cc2ccc(OC(F)(F)F)cc2)S(=O)(=O)CCN2CCC(O)CC2)sc2ccccc12 [Cpd 20, N-(3-Methylbenzo[b]thiophen-2-yl)-N-(4-trifluoromethoxy-benzyl)-2-(4-hydroxypiperidin-1-yl)ethylsulfonamide]"
100%,22 nM,"CCCCN(CCCC)CCS(=O)(=O)N(Cc1ccc(OC(F)(F)F)cc1)c1sc2ccccc2c1C [Cpd 15, N-(3-Methylbenzo[b]thiophen-2-yl)-N-(4-trifluoromethoxy-benzyl)-2-(dibutylamino)ethylsulfonamide]"
89%,52 nM,"CN(CCS(=O)(=O)N(Cc1ccc(OC(F)(F)F)cc1)c1ccc2ccccc2c1)Cc1ccccc1 [Cpd 57, N-(Naphth-2-yl)-N-(4-trifluoromethoxy-benzyl)-2-(benzyl-methylamino)ethylsulfonamide]"
100%,22 nM,"Cc1c(N(Cc2ccc(OC(F)(F)F)cc2)S(=O)(=O)CCN(C)CC(C)C)sc2ccccc12 [Cpd 11, N-(3-Methylbenzo[b]thiophen-2-yl)-N-(4-trifluoromethoxy-benzyl)-2-(methyl-isobutylamino)ethylsulfonamide]"
102%,28 nM,"CN(CCS(=O)(=O)N(Cc1ccc(OC(F)(F)F)cc1)c1sc2ccccc2c1Br)Cc1ccccc1 [Cpd 61, N-(3-Bromobenzo[b]thiophen-2-yl)-N-(4-trifluoromethoxy-benzyl)-2-(benzyl-methylamino)ethylsulfonamide]"
101%,36 nM,"Cc1c(N(Cc2ccc(F)c(F)c2)S(=O)(=O)CCN(C)Cc2ccccc2)sc2ccccc12 [Cpd 81, N-(3-Methylbenzo[b]thiophen-2-yl)-N-(3,4-difluoro-benzyl)-2-(benzyl-methylamino)ethylsulfonamide]"
65%,–,"Cc1c(N(Cc2ccc(OC(F)(F)F)cc2)S(=O)(=O)CCN(C)C)sc2ccccc12 [Cpd 49, N-(3-Methylbenzo[b]thiophen-2-yl)-N-(4-trifluoromethoxy-benzyl)-2-(dimethylamino)ethylsulfonamide]"
102%,72 nM,"O=S(=O)(CCN1CCC(F)(F)C1)N(Cc1ccc(OC(F)(F)F)cc1)c1sc2ccccc2c1Br [Cpd 68, N-(3-Bromobenzo[b]thiophen-2-yl)-N-(4-trifluoromethoxy-benzyl)-2-(3,3-difluoropyrrolidin-1-yl)ethylsulfonamide]"
97%,72 nM,"CCOC(=O)C1CCN(CCS(=O)(=O)N(CCC2CC2)c2sc3ccccc3c2C)CC1 [Cpd 84, N-(3-Methylbenzo[b]thiophen-2-yl)-N-(2-cyclopropyl-ethyl)-2-(4-carboethoxypiperidin-1-yl)ethylsulfonamide]"
84%,109 nM,"O=S(=O)(CCN1CC(F)(F)C1)N(Cc1ccc(OC(F)(F)F)cc1)c1ccc2ccccc2c1 [Cpd 55, N-(Naphth-2-yl)-N-(4-trifluoromethoxy-benzyl)-2-(3,3-difluoroazetidin-1-yl)ethylsulfonamide]"
100%,20 nM,"Cc1c(N(Cc2ccc(OC(F)(F)F)cc2)S(=O)(=O)CCN2CCCC2C)sc2ccccc12 (centres unmarked) [Cpd 37, N-(3-Methylbenzo[b]thiophen-2-yl)-N-(4-trifluoromethoxy-benzyl)-2-(2-methylpyrrolidin-1-yl)ethylsulfonamide]"
99%,9 nM,"Cc1c(N(Cc2ccc(OC(F)(F)F)cc2)S(=O)(=O)CCN2CCC(F)(F)C2)sc2ccccc12 [Cpd 45, N-(3-Methylbenzo[b]thiophen-2-yl)-N-(4-trifluoromethoxy-benzyl)-2-(3,3-difluoropyrrolidin-1-yl)ethylsulfonamide]"
101%,12 nM,"CC(=O)N1CCN(CCS(=O)(=O)N(Cc2ccc(OC(F)(F)F)cc2)c2sc3ccccc3c2C)CC1 [Cpd 29, N-(3-Methylbenzo[b]thiophen-2-yl)-N-(4-trifluoromethoxy-benzyl)-2-(4-acetylpiperazin-1-yl)ethylsulfonamide]"
98%,24 nM,"CCCN(CCC)CCS(=O)(=O)N(Cc1ccc(OC(F)(F)F)cc1)c1sc2ccccc2c1Cl [Cpd 4, N-(3-Chlorobenzo[b]thiophen-2-yl)-N-(4-trifluoromethoxy-benzyl)-2-(di-propylamino)ethylsulfonamide]"
99%,30 nM,"Cc1c(N(Cc2ccc(OC(F)(F)F)cc2)S(=O)(=O)CCN2CCC(O)C2)sc2ccccc12 (centres unmarked) [Cpd 38, N-(3-Methylbenzo[b]thiophen-2-yl)-N-(4-trifluoromethoxy-benzyl)-2-(3-hydroxypyrrolidin-1-yl)ethylsulfonamide]"
100%,8 nM,"Cc1c(N(Cc2ccc(OC(F)(F)F)cc2)S(=O)(=O)CCN(C(C)C)C(C)C)sc2ccccc12 [Cpd 59, N-(3-Methylbenzo[b]thiophen-2-yl)-N-(4-trifluoromethoxy-benzyl)-2-(di-isopropylamino)ethylsulfonamide]"
72%,153 nM,"CC(C)CN(CCS(=O)(=O)N(Cc1ccc(OC(F)(F)F)cc1)c1ccc2ccccc2c1)CC(C)C [Cpd 96, N-(Naphth-2-yl)-N-(4-trifluoromethoxy-benzyl)-2-(diisobutylamino)-ethylsulfonamide]"
